Measured values taken from publication PMC9088311, “Cyclic Thiosulfonates for Thiol-Mediated Uptake: Cascade Exchangers, Transporters, Inhibitors” (JACS Au, 2022).
Where “and” joins values, the source holds several entries; their conditions need not be identical. Identical values can stand only once.

Assays:
[1] = test system: HeLa Kyoto cells; test: Relative viability (HOE/PI) in HCHT screening
Procedure, shortened: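 HK cells exposed to increasing inhibitor concentrations, then fluorescent transporters at constant concentration, either after inhibitor removal (pre-incubation) or without removal (co-incubation).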

[2] = Dynamic covalent ring opening with thiol 10, 1H NMR kinetics; assay type: physicochemical
Experimental: The dynamic covalent opening of CTO 3 with thiols yields product 9 with a disulfide and a sulfinate (Figure 3B). Consistent with short chalcogen bonds found in silico, the opening of CTO 3 was instantaneous on an NMR timescale with most thiols. To decelerate ring opening, bulky thiols were considered in combination with lowered pH to deactivate the nucleophile. With N-Ac-D-penicillamine 10, the opening of 5 mM CTO 3 in phosphate buffer/DMSO-d6 9:1 was still immediate at pD 6.7 but became detectable in ^1H NMR spectroscopy kinetics under more acidic conditions. The ring-opening rate constants k^O were estimated by fitting the initial velocities to second-order kinetics. Only lower bound rates were approximated from the earliest determined substrate conversions when reactions were still too fast despite the unfavorable conditions. At pD 5.4, dynamic covalent ring opening of CTO 3 with equimolar tertiary thiol 10 occurred with k^O > 0.49 M^–1 s^–1 and equilibrated at K = 6.0 × 10^3 M^–1 (Table 1, entry 1, Figures S4 and S5). At pD 2.7, further deceleration to k^O = 0.10 M^–1 s^–1 shifted the equilibrium to K = 500 M^–1 (Table 1, entry 2, Figures S6 and S7). […] At equilibrium, the concentration of thiol 10 further decreased slowly due to oxidation into the homodimer (Figure 3C, diamonds).
Equilibrium constants for reactions with two reactants A and B and a product C are […]
3.1.1. Dynamic Covalent Ring Opening with Thiols
General procedure A (at 5 mM): To a solution of deuterated sodium phosphate (200 mM in D 2O, pD 2.7 or 5.4, 180 mM final concentration), a stock solution of substrate (0.10 M in DMSO-d6, 5.0 mM final concentration) was added and stirred. Then a stock solution of 10 (0.10 M in DMSO- d6, 5.0 mM final concentration) was added and vigorously stirred at room temperature. The solution was transferred immediately to an NMR tube and NMR data were recorded repeatedly. The concentration of the substrate or thiol at each time plot was calculated by comparing the integrals of the peaks indicated with arrows in the figures, and plotted. The data points were fitted to obtain k1 with the Equation (S6) or (S7) using Graphpad Prism.
General procedure B (at 2 mM): To a solution of deuterated sodium phosphate (200 mM in D 2O, pD 2.7 or 5.4, 180 mM final concentration), DMSO- d6 (10% DMSO- d6 in the reaction mixture) and a stock solution of substrate (0.10 M in DMSO- d6, 2.0 mM final concentration) were added and stirred. Then a stock solution of 10 (0.10 M in DMSO- d6, 2.0 mM final concentration) was added and vigorously stirred at room temperature. The solution was transferred immediately to an NMR tube and NMR data were recorded repeatedly. The concentration of the substrate or thiol at each time plot was calculated by comparing the integrals of the peaks indicated with arrows in the figures, and plotted. The data points were fitted to obtain k1 with the Equation (S6) or (S7) using Graphpad Prism.
General procedure C (for thiosulfinates): To a solution of deuterated sodium phosphate (200 mM in D 2O, pD 5.4, 170 mM final concentration), a stock solution of substrate (0.10 M in DMSO- d6, 5.0 mM final concentration) was added and stirred. Then a stock solution of 10 (0.10 M in DMSO- d6, 10 mM final concentration) was added and vigorously stirred at room […]
data points were fitted to obtain k1 with the Equation (S14) or (S16) using Graphpad Prism. […]
3.1.2. Dependence of Ring Opening on Proticity
A mixture of deuterated phosphoric acid and NaOD (30% in D 2O), which gave pD 2.7 in D2O, was used as buffer in all solvent mixtures. To a solution of deuterated sodium phosphate (20 mM final concentration) in a mixture of D 2O and DMSO- d6 (540 μL, final D 2O content: […]
concentration) was added and stirred. Then a stock solution of 10 (0.10 M in DMSO- d6, 5.0 mM final concentration) was added and vigorously stirred at room temperature. The solution was transferred immediately to an NMR tube and 1H NMR data were recorded repeatedly. […]

[3] = with transporter 28, pre-incubation (P)
[4] = with transporter 31, co-incubation (C)
[5] = with transporter 28, co-incubation (C)
[6] = equimolar 10, rt, pD 2.7, 90% D2O, Na+ phosphate 180 mM, substrate 2 mM

## O=S1(=O)C[C@H](O)[C@H](O)CS1 (stereo in doubt) [Compound 3, (4S,5R)-4,5-dihydroxy-1,2-dithiane-1,1-dioxide]
[1]; [3]
  RV50 (concentration needed to lower relative viability by 50%): >1000 µM
[1]; [4]
  RV50 (concentration needed to lower relative viability by 50%): >1000 µM
[2]; equimolar 10, rt, pD 2.7, 90% D2O/DMSO-d6, Na+ phosphate 180 mM, substrate 5 mM
  k^O, rate constant of ring opening: 0.10 M^–1 s^–1 and 0.10 ^i M^–1 s^–1
[2]; equimolar 10, rt, pD 5.4, 90% D2O/DMSO-d6, Na+ phosphate 180 mM, substrate 5 mM
  k^O, rate constant of ring opening (or equivalent for acyclic controls): >0.49 M^–1 s^–1
[2]; estimated pD 2.7, Na+ phosphate 20 mM, 2% D2O, 5 mM
  k^O, rate constant of ring opening: >1.4 M^–1 s^–1
[2]; estimated pD 2.7, Na+ phosphate 20 mM, 5% D2O, 5 mM
  k^O, rate constant of ring opening: >1.3 M^–1 s^–1
[2]; estimated pD 2.7, Na+ phosphate 20 mM, 8% D2O, 5 mM
  k^O, rate constant of ring opening: >1.4 M^–1 s^–1
[2]; estimated pD 2.7, Na+ phosphate 20 mM, 10% D2O, 5 mM
  k^O, rate constant of ring opening: >2.1 M^–1 s^–1
[2]; estimated pD 2.7, Na+ phosphate 20 mM, 30% D2O, 5 mM
  k^O, rate constant of ring opening: >2.8 M^–1 s^–1
[2]; estimated pD 2.7, Na+ phosphate 20 mM, 50% D2O, 5 mM
  k^O, rate constant of ring opening: >1.3 M^–1 s^–1
[2]; estimated pD 2.7, Na+ phosphate 20 mM, 70% D2O, 5 mM
  k^O, rate constant of ring opening: 0.28 ± 0.03 M^–1 s^–1 and 0.28 M^–1 s^–1
[2]; estimated pD 2.7, Na+ phosphate 20 mM, 90% D2O, 5 mM
  k^O, rate constant of ring opening: 0.15 ± 0.01 M^–1 s^–1 and 0.15 M^–1 s^–1
[2]; pD 2.7, 90% D2O, 5 mM
  krel^O, rate constant of ring opening relative to 3: 1
[2]; pD 5.4, 90% D2O, 5 mM
  krel^O, rate constant of ring opening relative to 3: 1

## [O-][S+]1C[C@@H](O)[C@@H](O)CS1 (stereo partly shown) [Compound 2]
[1]; [3]
  RV50 (concentration needed to lower relative viability by 50%): >100 µM
[2]; 2 equiv of 10, rt, pD 5.4, 85% D2O, Na+ phosphate 170 mM, substrate 5 mM
  k^O, rate constant of ring opening (or equivalent for acyclic controls): 0.001 M^–1 s^–1
[2]; pD 5.4, 85% D2O, 5 mM, 2 equiv of 10
  krel^O, rate constant of ring opening relative to 3: <0.002
[2]; with thiol 10, pD 5.4
  ring opening/exchange slower than CTO 3 (fold): > 500 ×

## O=C1O[C@H]2CSS(=O)(=O)C[C@H]2O1 [Compound 11]
[1]; [5]
  RV50 (concentration needed to lower relative viability by 50%): > 50 µM
[1]; [4]
  RV50 (concentration needed to lower relative viability by 50%): >50 µM
[1]; with transporter 31, pre-incubation (P)
  RV50 (concentration needed to lower relative viability by 50%): >20 µM
[2]; [6]
  k^O, rate constant of ring opening (or equivalent for acyclic controls): >12 M^–1 s^–1
[2]; pD 2.7, 90% D2O, 2 mM
  krel^O, rate constant of ring opening relative to 3: >120
[2]; with thiol 10, pD 2.7
  ring opening faster than 3 (fold): > 100 ×

## O=S1(=O)C=C[C@@H](O)CS1 [Compound 12]
[1]; [5]
  RV50 (concentration needed to lower relative viability by 50%): 100 µM
[1]; [4]
  RV50 (concentration needed to lower relative viability by 50%): >50 µM
[2]; [6]
  k^O, rate constant of ring opening (or equivalent for acyclic controls): >6.1 M^–1 s^–1
[2]; pD 2.7, 90% D2O, 2 mM
  krel^O, rate constant of ring opening relative to 3: >61
